According to paper PMC12185669 (Archives of Toxicology, 2025):
Read-outs that look alike come from different tables or passages of the source.

Key:
[1] = Quantification in postmortem blood and urine of dipyanone-positive forensic cases; settings: for concentration in blood, case #2: autoptic heart blood; for concentration in urine, case #2: autoptic urine
[2] = test system: ten-donor-pooled cryopreserved human hepatocytes; assay: Human hepatocyte incubation, LC-HRMS/MS metabolite identification; type: in vitro ADME; settings: for Hepatocytes peak area: LC-HRMS, positive ionisation mode, three hours of incubation with human hepatocytes, ND not detected; for portion of the total metabolites' signal: hepatocyte incubation, three hours
Procedure: Dipyanone incubations with human hepatocytes were carried out as previously described (Carlier et al. [2022]; Taoussi et al. [2024]). Briefly, the hepatocytes were thawed in 50 mL of thawing medium at 37 °C. After centrifugation (100 g, 5 min), the supernatant was discarded and the pellet was resuspended in 50 mL of SWM at 37 °C. Following a second centrifugation (100 g, 5 min), the supernatant was removed, and the pellet was resuspended in 2 mL of SWM at 37 °C. Cell viability was determined using the trypan blue exclusion method, and the SWM volume was adjusted to reach a concentration of 2 × 10^6 cells/mL. In sterile 24-well culture plates, 250 µL hepatocyte suspension was gently mixed with 250 µL of dipyanone (20 µmol/L in SWM). The plates were incubated at 37 °C, and reactions were stopped after 0 or 3 h with 500 µL ice-cold acetonitrile, followed by centrifugation (15,000 g, 10 min). Negative (without SWM, hepatocytes, or dipyanone) and positive controls (diclofenac incubation) were incubated for 0 and 3 h under the same conditions to exclude nonspecific reactions and ensure proper metabolic activity. Incubates were stored at – 80° until analysis.
A 100 µL volume of incubate was mixed with 100 µL of acetonitrile and centrifuged for 10 min, 15,000 g at room temperature for protein precipitation (acetonitrile:SWM, 3:1, v/v). The supernatant was dried under a nitrogen stream at 37 °C. […] Again, the solution was centrifuged (10 min, 15,000 g) at room temperature. The resulting supernatant was transferred into vials with a glass insert, and 10 µL was injected into the chromatographic system for analysis.
The total chromatographic run time was 24 min.

[3] = Metabolite identification in authentic postmortem urine samples by LC-HRMS/MS; settings: for portion of the total metabolites' signal in urine: both urine samples; for Urine #1 peak area with β-gluc: postmortem urine case #1, after β-glucuronidase hydrolysis; for Urine #1 peak area with β-gluc / Urine #1 peak area / Urine #2 peak area with β-gluc / Urine #2 peak area: ND not detected; for Urine #1 peak area: postmortem urine case #1, no hydrolysis; for Urine #1 peak area / Urine #2 peak area: positive ionisation mode; for Urine #2 peak area with β-gluc: postmortem urine case #2, after β-glucuronidase hydrolysis; for Urine #2 peak area: postmortem urine case #2, no hydrolysis
Procedure: (§1) Samples were thawed at room temperature. A 100 µL aliquot was mixed with 200 µL of acetonitrile and centrifuged for 10 min at 15,000 g at room temperature. The supernatants were evaporated to dryness under nitrogen at 37 °C. The residues were reconstituted in 100 µL of a mixture containing 95% mobile phase A and 5% mobile phase B (v/v). After centrifugation under the same conditions, the supernatants were transferred to autosampler vials with glass inserts. A 10 µL volume was injected into the chromatographic system for analysis.
(§2) To investigate glucuronic acid conjugation, 100 µL of urine was mixed with 10 µL of 10 mol/L ammonium acetate (pH 5.0) and 100 µL of β-glucuronidase (5000 units), then incubated at 37 °C for 90 min. Subsequently, 400 µL of ice-cold acetonitrile was added to the mixtures, which were centrifuged for 10 min at 15,000 g at room temperature. The supernatants were evaporated to dryness under nitrogen at 37 °C and reconstituted in 100 µL of a mixture containing 95% mobile phase A and 5% mobile phase B (v/v). After centrifugation under the same conditions, the supernatants were transferred to autosampler vials with glass inserts. A 10 µL volume was injected into the chromatographic system for analysis.
(§3) The analyses were conducted by liquid chromatography-high-resolution tandem mass spectrometry (LC-HRMS/MS) with a DIONEX UltiMate 3000 liquid chromatographer coupled to a Q Exactive quadrupole-Orbitrap hybrid high-resolution mass spectrometer equipped with a heated electrospray ionisation (HESI) source from Thermo Scientific (Waltham, Massachusetts, USA).
(§4) The compounds were separated using a Kinetex Biphenyl column (150 × 2.1 mm, 2 μm) from Phenomenex (Torrance, California, USA). The separation was achieved using mobile phases A and B at a flow rate of 0.4 mL/min. The gradient elution program was as follows: 2% B was held for 2 min, then increased to 25% B over 12 min, followed by a rapid increase to 95% B within 2 min, and held for 4 min. Subsequently, the initial conditions were restored within 0.1 min and maintained for 3.9 min. The total chromatographic run time was 24 min. Throughout the analysis, the column oven temperature was maintained at 37 ± 1 °C, while the autosampler temperature was set to 10 ± 1 C.
(§5) All samples were analysed in both positive- and negative-ion modes, requiring two separate injections while maintaining the same HESI conditions. […] Prior to each analytical session, mass calibration was performed using certified calibration solutions in both positive and negative ion modes. To enhance accuracy, a lock mass list was compiled for positive- (m/z 279.0933, 144.9821, 146.9803) and negative ion modes (m/z 265.1479, 162.9824, 248.9604).
(§6) The mass spectrometer acquired from 1 to 20 min of the chromatographic run in full-scan HRMS (FullMS)/data-dependent MS/MS (ddMS^2) mode. The FullMS settings were as follows: range, m/z 100 to 650; resolution at full width at half maximum at m/z 200, 70,000; automatic gain control target, 1 × 10^6; and maximum injection time, 200 ms. For ddMS^2, the settings were: automatic gain control target, 2 × 10^5; maximum injection time, 64 ms; isolation window, m/z 1.2; resolution, 17,500; and stepped normalised collision energy, 40, 70, and 90 a.u. A maximum of five ddMS^2 scans were triggered for each FullMS scan, with a minimum intensity of 10^4 and dynamic exclusion of 2.0 s..
(§7) LC-HRMS/MS data were processed with Thermo Scientific Compound Discoverer in a single analysis.

[4] = test system: mouse; design: method as in Janssen and Jageneau 2011; settings: ref Janssen and Jageneau 2011; cited from earlier work
[5] = design: method as in Scott et al. 1947; settings: ref Scott et al. 1947; cited from earlier work
[6] = test system: mice; settings: ref Scott et al. 1946, 1947; cited from earlier work
[7] = target: human MOR membrane preparation (Homo sapiens, UniProt P35372); assay: biochemical
Chain of human MOR membrane preparation (P35372 whole entry): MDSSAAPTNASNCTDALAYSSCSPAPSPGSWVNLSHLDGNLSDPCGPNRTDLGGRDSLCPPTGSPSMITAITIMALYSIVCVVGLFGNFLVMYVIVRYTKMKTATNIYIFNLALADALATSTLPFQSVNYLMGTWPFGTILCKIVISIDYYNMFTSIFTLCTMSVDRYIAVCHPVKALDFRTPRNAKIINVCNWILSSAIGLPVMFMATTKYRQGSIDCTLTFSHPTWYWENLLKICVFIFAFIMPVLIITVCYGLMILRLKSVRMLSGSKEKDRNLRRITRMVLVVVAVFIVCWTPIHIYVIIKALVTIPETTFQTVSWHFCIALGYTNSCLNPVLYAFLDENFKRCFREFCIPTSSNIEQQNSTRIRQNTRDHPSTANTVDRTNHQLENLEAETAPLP

[8] = target: human KOR membrane preparation (Homo sapiens, UniProt P41145); assay: HTRF-based GTP Gi binding assay, KOR; type: biochemical
Chain of human KOR membrane preparation (P41145 whole entry): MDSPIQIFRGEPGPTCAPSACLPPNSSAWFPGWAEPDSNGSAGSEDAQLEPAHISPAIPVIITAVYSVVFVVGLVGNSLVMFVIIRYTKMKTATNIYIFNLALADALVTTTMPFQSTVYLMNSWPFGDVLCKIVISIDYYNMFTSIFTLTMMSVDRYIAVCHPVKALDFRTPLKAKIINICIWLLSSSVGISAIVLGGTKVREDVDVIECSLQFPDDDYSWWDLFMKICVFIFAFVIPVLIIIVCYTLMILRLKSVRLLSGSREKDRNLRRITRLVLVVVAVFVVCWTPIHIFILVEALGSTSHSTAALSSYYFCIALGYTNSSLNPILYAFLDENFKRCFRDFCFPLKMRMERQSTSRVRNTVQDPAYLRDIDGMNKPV

[9] = target: human DOR membrane preparation (Homo sapiens, UniProt P41143); assay: HTRF-based GTP Gi binding assay, DOR; type: biochemical
Chain of human DOR membrane preparation (P41143 whole entry): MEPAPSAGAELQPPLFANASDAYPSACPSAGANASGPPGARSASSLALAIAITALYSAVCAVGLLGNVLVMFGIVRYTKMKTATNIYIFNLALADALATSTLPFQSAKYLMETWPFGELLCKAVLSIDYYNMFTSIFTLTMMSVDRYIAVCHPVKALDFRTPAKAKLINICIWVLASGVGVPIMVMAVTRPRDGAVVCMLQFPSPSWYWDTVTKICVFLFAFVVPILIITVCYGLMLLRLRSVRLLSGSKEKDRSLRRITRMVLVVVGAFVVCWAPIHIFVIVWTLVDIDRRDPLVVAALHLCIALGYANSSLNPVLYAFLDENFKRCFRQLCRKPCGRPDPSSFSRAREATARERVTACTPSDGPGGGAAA

[10] = human, in vivo
Procedure: as §1, §2, §3, §4, §5, §6, §7

[11] = test system: µ-opioid receptor; settings: cited from earlier work
[12] = test system: mouse; design: method as in Bockmühl and Ehrhart 1949; settings: mouse tail pinch test; ref Bockmühl and Ehrhart 1949; cited from earlier work
[13] = detected alongside other NSOs; ref Vandeputte et al. 2023; cited from earlier work

## 2-fluoromethamphetamine
[1]
  concentration in blood, case #2: 96 ng/mL

## CC=C1N(CCCC(=O)O)C(C)CC1(c1ccccc1)c1ccccc1 (centres unmarked) [M13, 4’-[2-ethylidene-5-methyl-3,3-diphenylpyrrolidin-1-yl]butanoic acid]
[2]
  Hepatocytes peak area: 9.5 × 10^6
  portion of the total metabolites' signal: 27%
[3]
  portion of the total metabolites' signal in urine: 61%
  Urine #1 peak area with β-gluc: 5.7 × 10^9
  Urine #1 peak area: 5.4 × 10^9
  Urine #2 peak area with β-gluc: 3.3 × 10^9
  Urine #2 peak area: 5.6 × 10^9

## CNC1(c2ccccc2)CCCCC1=O (centres unmarked) [deschloroketamine]
[1]
  concentration in blood, case #2: 1.0 ng/mL
  concentration in urine, case #2: 23 ng/mL

## mitragynine
[1]
  concentration in blood, case #2: 160 ng/mL
  concentration in urine, case #2: > 200 ng/mL

## CNC1(c2ccccc2F)CCCCC1=O (centres unmarked) [2-fluoro-deschloroketamine]
[1]
  concentration in blood, case #2: < 1.0 ng/mL
  concentration in urine, case #2: > 50 ng/mL

## CC(N)Cc1ccccc1F (centres unmarked) [2-fluoroamphetamine]
[1]
  concentration in blood, case #2: 24 ng/mL

## CC=C1N(CCCCO)C(C)CC1(c1ccccc1)c1ccccc1 (centres unmarked) [M12, 4’-[2-ethylidene-5-methyl-3,3-diphenylpyrrolidin-1-yl]butan-1’-ol]
[2]
  Hepatocytes peak area: 1.8 × 10^7
  portion of the total metabolites' signal: 50%
[3]
  portion of the total metabolites' signal in urine: 23–26%
  Urine #1 peak area with β-gluc: 3.4 × 10^9
  Urine #1 peak area: 2.3 × 10^9
  Urine #2 peak area with β-gluc: 1.7 × 10^9
  Urine #2 peak area: 2.1 × 10^9

## CCC(=O)C(CC(C)N(C)C)(c1ccccc1)c1ccccc1 (centres unmarked) [methadone, reference compound]
[4]
  median effective dose, mouse hot plate assay: 5.18 mg/kg
[5]
  analgesic threshold: 1 to 2 mg/kg
[6]
  LD50 in mice: ~ 17 mg/kg

## CCNC1(c2ccccc2)CCCCC1=O (centres unmarked) [deschloro-N-ethylketamine]
[1]
  concentration in blood, case #2: 46 ng/mL
  concentration in urine, case #2: > 50 ng/mL

## CCC(=O)C(CC(C)N1CCCC1)(c1ccccc1)c1ccccc1 (centres unmarked) [Dipyanone, 4,4-diphenyl-6-(1’-pyrrolidinyl)-3-heptanone]
[7]
  EC50: 96.8 nM
[8]
  EC50: 380 nM
[8]; normalised to U-50488, mean (95% CI), n = 3, read-out: KOR Emax relative to U-50488
  Emax: 13%
[9]
  EC50: 1070 nM
[9]; normalised to SNC-80, mean (95% CI), n = 3, read-out: DOR Emax relative to SNC-80
  Emax: 56%
[2]
  Hepatocytes peak area: 7.7 × 10^8
[2]; after three hours of incubation, compared to the controls
  LC-HRMS/MS peak area after incubation relative to its original value: approximately one-sixth
[10]
  Urine #2 peak area: 1.3 × 10^10
[11]
  efficacy (Emax) compared to hydromorphone at the µ-opioid receptor: 155%
[11]; read-out: EC50 at MOR, β-arrestin2 recruitment assay
  EC50: 39.9 nM
[4]
  median effective dose, mouse hot plate assay: 6.82 mg/kg
[12]
  analgesic properties relative to pethidine: 5–10 times
[5]
  analgesic threshold: 1 to 2 mg/kg
[6]
  LD50 in mice: ~ 17 mg/kg
[13]
  blood concentration, postmortem case in the USA: 370 ng/mL
[3]
  Urine #1 peak area with β-gluc: 1.3 × 10^10
  Urine #1 peak area: 1.1 × 10^10
  Urine #2 peak area with β-gluc: 8.0 × 10^9
[1]; Germany 2022 and 2023, own unpublished data
  concentration in urine, four dipyanone-related fatalities: 80 to 5500 ng/mL
[1]
  concentration in blood, case #2: 80 ng/mL
[1]; postmortem femoral blood
  concentration in blood, case #1: 720 ng/mL

## CC[C@@H]1CN2CC[C@@]3(O)C(=Nc4cccc(OC)c43)[C@@H]2C[C@@H]1/C(=C\OC)C(=O)OC [7-hydroxymitragynine]
[1]
  concentration in blood, case #2: 4.7 ng/mL
  concentration in urine, case #2: > 200 ng/mL
